How the values were obtained:
Type in all cases: in vivo
male Sprague-Dawley rats [1] = experiment: Rat hindpaw withdrawal latency (HWL) to mechanical stimulation, Randall Selitto Test; settings: for % Changes of HWL to Mechanical Stimulation: 10 minutes after intrathecal injection
male Sprague-Dawley rats [2] = experiment: Rat hindpaw withdrawal latency (HWL) to thermal stimulation, hot-plate test; settings: for % Changes of HWL to Thermal Stimulation: 10 minutes after intrathecal injection
male Sprague-Dawley rats [3] = experiment: Development of tolerance to intrathecal analgesia in rat HWL tests (thermal and mechanical); settings: intrathecal every 12 hrs
Experimental: A polyethylene catheter (Intramedic PE 10) was permanently implanted intrathecally with the inner tip at L3 to L5 in each animal. Rats displaying movement disorders following placement of the catheter were not used in the study. Injection volume was 10 μL of drug solution followed by 10 μL of 0.9% saline to flush the catheter. Intrathecal injections were performed every 12 hrs (morning and night).
In the morphine only group, 8 μg morphine HCl was injected every 12 hrs until complete tolerance developed and in the nociceptin only group, 10 nmol nociceptin was injected every 12 hrs until complete tolerance developed. These doses were chosen from previous studies that determined an equianalgesic dosing for these two drugs. […]
Solutions for intrathecal injection were prepared with sterilized saline (0.9%). […] The hindpaw withdrawal latency (HWL) was measured for both thermal and mechanical stimulation. […] A wedge shaped probe with a loading rate of 30 g/second was applied to the dorsal surface of the manually handled hindpaw and the mechanical stimulation required to initiate the struggle response was assessed. […] The HWLs were measured 15 min after the second intrathecal injection on a daily basis. […]

[4] = day 1, drug alone, intrathecal, text summary of both hindpaws

Q: With `CN1CC[C@]23c4c5ccc(O)c4O[C@H]2[C@@H](O)C=C[C@H]3[C@H]1C5` [Morphine, morphine] as the compound, how does the “HWL increase using mechanical stimulation” value (male Sprague-Dawley rats [1]; [4]) read?
A: ~55%

Q: And the “% Changes of HWL to Mechanical Stimulation” value (male Sprague-Dawley rats [1]; day 1, left hindpaw)?
A: 53.99 ± 2.96%

Q: What about the “% Changes of HWL to Mechanical Stimulation” value (male Sprague-Dawley rats [1]; day 1, right hindpaw) of the same compound?
A: 56.04 ± 3.38%

Q: And the “% Changes of HWL to Mechanical Stimulation” value (male Sprague-Dawley rats [1]; day 2, left hindpaw)?
A: 47.69 ± 2.54%

Q: What about the “% Changes of HWL to Mechanical Stimulation” value (male Sprague-Dawley rats [1]; day 2, right hindpaw) of the same compound?
A: 46.74 ± 2.52%

Q: And the “% Changes of HWL to Mechanical Stimulation” value (male Sprague-Dawley rats [1]; day 3, left hindpaw)?
A: 33.85 ± 1.60%

Q: What about the “% Changes of HWL to Mechanical Stimulation” value (male Sprague-Dawley rats [1]; day 3, right hindpaw) of the same compound?
A: 33.44 ± 1.03%

Q: And the “% Changes of HWL to Mechanical Stimulation” value (male Sprague-Dawley rats [1]; day 4, left hindpaw)?
A: 31.37 ± 2.02%

Q: What about the “% Changes of HWL to Mechanical Stimulation” value (male Sprague-Dawley rats [1]; day 4, right hindpaw) of the same compound?
A: 28.84 ± 2.73%

Q: What about the “% Changes of HWL to Mechanical Stimulation” value (male Sprague-Dawley rats [1]; day 5, left hindpaw) of the same compound?
A: 15.30 ± 1.39%

Q: What about the “% Changes of HWL to Mechanical Stimulation” value (male Sprague-Dawley rats [1]; day 5, right hindpaw) of the same compound?
A: 16.54 ± 1.26%

Q: What about the “% Changes of HWL to Mechanical Stimulation” value (male Sprague-Dawley rats [1]; day 6, left hindpaw) of the same compound?
A: 3.26 ± 1.86%

Q: What about the “% Changes of HWL to Mechanical Stimulation” value (male Sprague-Dawley rats [1]; day 6, right hindpaw) of the same compound?
A: 2.72 ± 1.94%

Q: And the “HWL increase using thermal stimulation” value (male Sprague-Dawley rats [2]; [4])?
A: approximately 67%

Q: What about the “% Changes of HWL to Thermal Stimulation” value (male Sprague-Dawley rats [2]; day 1, left hindpaw) of the same compound?
A: 66.26 ± 2.20%

Q: What about the “% Changes of HWL to Thermal Stimulation” value (male Sprague-Dawley rats [2]; day 1, right hindpaw) of the same compound?
A: 66.66 ± 1.51%

Q: What about the “% Changes of HWL to Thermal Stimulation” value (male Sprague-Dawley rats [2]; day 2, left hindpaw) of the same compound?
A: 61.25 ± 3.05%

Q: And the “% Changes of HWL to Thermal Stimulation” value (male Sprague-Dawley rats [2]; day 2, right hindpaw)?
A: 63.11 ± 0.64%

Q: What about the “% Changes of HWL to Thermal Stimulation” value (male Sprague-Dawley rats [2]; day 3, left hindpaw) of the same compound?
A: 51.66 ± 1.73%

Q: What about the “% Changes of HWL to Thermal Stimulation” value (male Sprague-Dawley rats [2]; day 3, right hindpaw) of the same compound?
A: 48.74 ± 2.40%

Q: What about the “% Changes of HWL to Thermal Stimulation” value (male Sprague-Dawley rats [2]; day 4, left hindpaw) of the same compound?
A: 43.63 ± 1.38%

Q: And the “% Changes of HWL to Thermal Stimulation” value (male Sprague-Dawley rats [2]; day 4, right hindpaw)?
A: 42.45 ± 1.70%

Q: What about the “% Changes of HWL to Thermal Stimulation” value (male Sprague-Dawley rats [2]; day 5, left hindpaw) of the same compound?
A: 23.85 ± 1.03%

Q: And the “% Changes of HWL to Thermal Stimulation” value (male Sprague-Dawley rats [2]; day 5, right hindpaw)?
A: 25.07 ± 2.07%

Q: What about the “% Changes of HWL to Thermal Stimulation” value (male Sprague-Dawley rats [2]; day 6, left hindpaw) of the same compound?
A: −1.30 ± 2.36%

Q: And the “% Changes of HWL to Thermal Stimulation” value (male Sprague-Dawley rats [2]; day 6, right hindpaw)?
A: 0.51 ± 1.61%

Q: And the “day by which complete (total) tolerance exists” value (male Sprague-Dawley rats [3])?
A: 6 days

Source: US20030040479A1, “Rotational intrathecal analgesia method and device” (Omeros Corporation, priority 2001, published 2003)
